Some results are limits rather than exact numbers.

In general, Ki refers to a dissociation constant, usually derived from enzyme kinetics or from competition with a known ligand.

The test system of data set [1] is mice. The note with it: intravenous; cited from earlier work.
For data set [2], the target named is T1, aldose reductase (human recombinant, expressed in SF 9 cells) (Homo sapiens, UniProt P15121). Description: Aldose reductase assay, NADPH dependent reduction of glyceraldehyde. It is filed as biochemical. The settings on record: substrate glyceraldehyde 0.050-6 mM, 37° C., Lineweaver Burk analysis, read-out: Ki, inhibition of aldose reductase catalyzed reduction of glyceraldehyde to aldose. The procedure:
(§1) Aldose reductase assays were as described in Nishimura C., Yamaoka T., Mizutani M., Yamashita K., Akera T., Tanimoto T., Purification And Characterization Of The Recombinant Human Aldose Reductase Expressed In Baculovirus System, Biochem. Biophys. Acta, Jun. 24, 1991; 1078(2):171-8.
(§2) Briefly, Dimesna (0-20 μM) was incubated at 37° C. with aldose reductase (0.0016 units, human recombinant, expressed in SF 9 cells) and NADPH (0.15 mM) in sodium phosphate buffer (100 mM, pH 6.2). To initiate assays, glucose (10-150 mM) was added to reactions and the decrease in absorbance at 340 nm (oxidation of NADPH) was monitored. Assays were run in duplicate or triplicate. Slopes were calculated using Varian-Cary software package 2.0 and averaged. In all cases errors were 4% or less. Lineweaver Burk analysis (Enzyme Kinetics, version 1.61) was used to calculate inhibition constants.
Aldose reductase assays were as described above. Dimesna (0-30 mM) was evaluated for its effect on the NADPH dependent reduction of glyceraldehyde (0.050-6 mM) to aldose at 37° C. Assays were run in duplicate or triplicate. Slopes were calculated using Varian-Cary software package 2.0 and averaged. In all cases errors were 4% or less. Lineweaver Burk analysis (Enzyme Kinetics, version 1.61) was used to calculate inhibition constants.

The target in data set [3] is T1, aldose reductase (human recombinant, expressed in SF 9 cells). Briefly: Aldose reductase assay, reduction of glucose to sorbitol (NADPH oxidation, absorbance at 340 nm). In kind it is biochemical. The procedure: as §1, §2
Data set [4] deals with dogs. The note with it: intravenous; cited from earlier work.
The test system of data set [5] is humans. The note with it: cited from earlier work.
The conditions of data set [6]: accepted value; cited from earlier work.

As for `O=S(=O)([O-])CCSSCCS(=O)(=O)[O-].[Na+].[Na+]` [Dimesna, disodium 2,2'-dithiobis ethane sulfonate], the figures for the “Dose administered with no adverse effects” value in data set [1], in data set [4] and in data set [5] were above 3750 mg/kg, above 3750 mg/kg and “exceeding 15 g/m^2”, respectively. Further, the Ki was 15.5 µM in data set [2] and 32 µM in data set [3] (substrate glucose 10-150 mM, NADPH 0.15 mM, pH 6.2, 37° C., Lineweaver Burk analysis, read-out: Ki, inhibition of aldose reductase catalyzed reduction of glucose to sorbitol). In data set [3] (Lineweaver Burk plots nearly parallel, glucose and glyceraldehyde substrates), the “Type of inhibition of the aldose reductase reaction” value was “uncompetitive inhibition”.
With `[Cl-].[Na+]` [common table salt], in data set [6], the “oral LD50” value is 3750 mg/kg.

Values taken from patent US6031006A, “Method of treating diabetic nephropathy” (BioNumerik Pharmaceuticals, Inc., priority 1999, dated 2000).
